Measurements taken from ChEMBL document CHEMBL5725325, “Combination of kinase inhibitors and uses thereof” (2017).

Legend:
[1] = biological target: Phosphatidylinositol 4,5-bisphosphate 3-kinase catalytic subunit gamma isoform (Homo sapiens, UniProt P48736); assay: (§1) PI 3-Kinase HTRF Assay: Briefly, the assay is a time resolved FRET assay that indirectly measures PIP3 product formed by the activity of a PI3-K. The kinase reaction is performed in a microtitre plate (e.g., a 384 well microtitre plate). The total reaction volume is approximately 20 ul per well. In the first step, each well receives 2 ul of test compound in 20% dimethylsulphoxide resulting in a 2% DMSO final concentration. Next, approximately 14.5 ul of a kinase/PIP2 mixture (diluted in 1x reaction buffer) is added per well for a final concentration of 0.25-0.3 ug/ml kinase and 10 uM PIP2. The plate is sealed and incubated for 15 minutes at room temperature. To start the reaction, 3.5 ul of ATP (diluted in 1x reaction buffer) is added per well for a final concentration of 10 uM ATP. The plate is sealed and incubated for 1 hour at room temperature. The reaction is stopped by adding 5 ul of Stop Solution per well and then 5 ul of Detection Mix is added per well. The plate is sealed, incubated for 1 hour at room temperature, and then read on an appropriate plate reader.
Phosphatidylinositol 4,5-bisphosphate 3-kinase catalytic subunit gamma isoform, sequence (P48736 whole entry, canonical isoform): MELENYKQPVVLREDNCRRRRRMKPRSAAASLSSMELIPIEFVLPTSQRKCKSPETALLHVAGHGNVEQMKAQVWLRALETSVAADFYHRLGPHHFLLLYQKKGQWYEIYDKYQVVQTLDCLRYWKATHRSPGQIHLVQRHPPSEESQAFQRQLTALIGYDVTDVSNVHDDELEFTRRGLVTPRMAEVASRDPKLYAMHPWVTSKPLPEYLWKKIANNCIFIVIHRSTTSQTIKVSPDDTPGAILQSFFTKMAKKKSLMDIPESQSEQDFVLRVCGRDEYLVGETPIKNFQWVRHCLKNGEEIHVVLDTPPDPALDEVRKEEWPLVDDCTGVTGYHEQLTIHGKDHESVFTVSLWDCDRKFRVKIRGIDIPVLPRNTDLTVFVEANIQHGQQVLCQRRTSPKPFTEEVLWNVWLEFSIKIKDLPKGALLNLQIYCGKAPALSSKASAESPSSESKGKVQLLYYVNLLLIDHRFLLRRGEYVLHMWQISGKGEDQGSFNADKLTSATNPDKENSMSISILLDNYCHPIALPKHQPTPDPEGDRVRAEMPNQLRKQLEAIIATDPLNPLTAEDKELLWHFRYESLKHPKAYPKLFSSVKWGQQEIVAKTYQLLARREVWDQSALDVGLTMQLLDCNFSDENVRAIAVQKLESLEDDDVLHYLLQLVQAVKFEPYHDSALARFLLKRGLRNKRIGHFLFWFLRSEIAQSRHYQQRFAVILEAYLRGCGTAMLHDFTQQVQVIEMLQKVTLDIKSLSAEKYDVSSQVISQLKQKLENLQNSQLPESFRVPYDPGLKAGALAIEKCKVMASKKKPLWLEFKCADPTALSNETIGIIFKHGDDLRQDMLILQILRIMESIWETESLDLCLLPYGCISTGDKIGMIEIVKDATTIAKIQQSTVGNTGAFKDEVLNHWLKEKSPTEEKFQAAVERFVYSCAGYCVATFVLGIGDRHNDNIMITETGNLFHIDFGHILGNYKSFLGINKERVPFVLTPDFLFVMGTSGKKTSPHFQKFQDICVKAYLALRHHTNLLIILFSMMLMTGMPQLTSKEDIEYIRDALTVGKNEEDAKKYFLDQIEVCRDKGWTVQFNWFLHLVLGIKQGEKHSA

[2] = as §1
[3] = biological target: Phosphatidylinositol 3-kinase regulatory subunit beta (Homo sapiens, UniProt O00459); assay: as §1
Phosphatidylinositol 3-kinase regulatory subunit beta, sequence (O00459 whole entry, canonical isoform): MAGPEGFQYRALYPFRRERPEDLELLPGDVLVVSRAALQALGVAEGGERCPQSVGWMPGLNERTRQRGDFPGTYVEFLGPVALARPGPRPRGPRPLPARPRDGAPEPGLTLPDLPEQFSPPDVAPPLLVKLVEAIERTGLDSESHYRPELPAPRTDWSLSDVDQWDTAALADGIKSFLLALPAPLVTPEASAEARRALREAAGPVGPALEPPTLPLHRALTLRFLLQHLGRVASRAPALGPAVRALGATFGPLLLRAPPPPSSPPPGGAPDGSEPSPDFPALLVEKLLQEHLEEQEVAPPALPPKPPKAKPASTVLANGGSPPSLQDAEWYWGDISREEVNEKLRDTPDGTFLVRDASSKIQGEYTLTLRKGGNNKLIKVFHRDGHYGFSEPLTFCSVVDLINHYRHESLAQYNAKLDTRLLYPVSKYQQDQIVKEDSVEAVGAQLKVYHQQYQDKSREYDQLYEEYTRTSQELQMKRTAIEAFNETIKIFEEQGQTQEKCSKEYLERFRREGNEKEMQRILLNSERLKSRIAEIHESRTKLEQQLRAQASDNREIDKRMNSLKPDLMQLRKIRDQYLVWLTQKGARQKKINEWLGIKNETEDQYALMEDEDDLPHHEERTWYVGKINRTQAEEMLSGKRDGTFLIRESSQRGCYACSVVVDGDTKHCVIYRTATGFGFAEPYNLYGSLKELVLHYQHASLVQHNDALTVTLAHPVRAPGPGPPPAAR

[4] = biological target: T1, Phosphatidylinositol 4,5-bisphosphate 3-kinase catalytic subunit delta isoform (Homo sapiens, UniProt O00329); assay: as §1
T1 sequence (O00329 whole entry): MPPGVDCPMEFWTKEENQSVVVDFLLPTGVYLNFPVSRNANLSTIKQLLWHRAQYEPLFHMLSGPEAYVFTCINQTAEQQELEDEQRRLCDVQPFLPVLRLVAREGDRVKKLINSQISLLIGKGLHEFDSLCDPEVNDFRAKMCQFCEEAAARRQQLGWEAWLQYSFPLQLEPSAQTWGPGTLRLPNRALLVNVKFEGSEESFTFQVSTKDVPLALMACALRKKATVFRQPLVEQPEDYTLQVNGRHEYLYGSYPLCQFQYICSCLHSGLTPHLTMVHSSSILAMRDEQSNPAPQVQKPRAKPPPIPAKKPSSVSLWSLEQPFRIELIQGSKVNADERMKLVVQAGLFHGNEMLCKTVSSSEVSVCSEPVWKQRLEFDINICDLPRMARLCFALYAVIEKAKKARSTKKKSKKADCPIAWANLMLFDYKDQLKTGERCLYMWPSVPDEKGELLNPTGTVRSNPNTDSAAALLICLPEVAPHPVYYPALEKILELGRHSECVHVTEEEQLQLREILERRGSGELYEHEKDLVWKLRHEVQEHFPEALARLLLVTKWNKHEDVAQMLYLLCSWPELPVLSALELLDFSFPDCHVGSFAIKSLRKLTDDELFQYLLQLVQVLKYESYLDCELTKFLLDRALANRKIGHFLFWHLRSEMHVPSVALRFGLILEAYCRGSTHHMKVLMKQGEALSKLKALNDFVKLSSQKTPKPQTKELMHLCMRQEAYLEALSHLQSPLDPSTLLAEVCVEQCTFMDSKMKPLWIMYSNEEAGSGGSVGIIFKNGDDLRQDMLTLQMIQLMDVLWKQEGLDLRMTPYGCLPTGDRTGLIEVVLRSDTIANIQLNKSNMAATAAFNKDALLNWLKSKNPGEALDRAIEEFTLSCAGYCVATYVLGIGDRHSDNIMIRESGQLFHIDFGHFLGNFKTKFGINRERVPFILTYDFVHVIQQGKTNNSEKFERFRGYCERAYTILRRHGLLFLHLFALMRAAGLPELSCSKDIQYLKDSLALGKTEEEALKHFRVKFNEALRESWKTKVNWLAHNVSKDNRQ

SMILES	IC50 [1] [nM]	IC50 [2] [nM]	IC50 [3] [nM]	further results
Nc1nc2cc(-c3ccc4ncn(-c5ccccc5)c4c3)ccc2o1	< 1000			
C[C@@H]1COCCN1C1CN(c2cnc3ccc(-c4ccc5oc(N)nc5c4)nc3n2)C1		< 100		
CC(C)(N)C(=O)N1CCN(c2cnc3ccc(-c4ccc5oc(N)nc5c4)nc3n2)CC1			< 10000	
Nc1nc2cc(-c3ccc4ncc(C(=O)N5CCC(N6CCC(F)(F)C6)C5)n4c3)ccc2o1 (stereo not drawn)	< 10000			IC50 [4]: < 10000 nM
Nc1nc2cc(-c3ccc4ncc(N5CCN(C(=O)C6CCCN6)CC5)nc4c3)ccc2o1 (stereo not drawn)		< 100	< 100	
C[C@@H](N)C(=O)N1CCN(c2cnc3ccc(-c4ccc5oc(N)nc5c4)nc3n2)CC1			< 100	
